PubChem BioAssay AID330 (DTP/NCI, 2004)
Several values for one entry are separate records, joined by “and”; a condition that tells them apart may be missing. Identical values can stand only once. Toxic doses and inconclusive results are not listed.

Test system: P388 leukemia ip, CD2F1 mice, survival T/C
Assay: NCI In Vivo Anticancer Drug Screen. Data for tumor model P388 Leukemia (intraperitoneal) in CD2F1 (CDF1) mice
Conditions: endpoint: median survival time, higher = longer survival
Method in brief: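 Mice carrying the transplanted tumor received test compound or vehicle. Survival was recorded in each group, and the value is the treated-group measurement divided by that of the vehicle-treated control group.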

[1] = dose: 50.0 mg/kg/injection, schedule: Q01DX009 (ip), vehicle: saline
[2] = dose: 100.0 mg/kg/injection, schedule: Q01DX009 (ip), vehicle: saline
[3] = dose: 200.0 mg/kg/injection, schedule: Q01DX009 (ip), vehicle: saline
[4] = dose: 25.0 mg/kg/injection, schedule: Q04DX002 (ip), vehicle: saline with Tween-80
[5] = dose: 50.0 mg/kg/injection, schedule: Q04DX002 (ip), vehicle: saline with Tween-80
[6] = dose: 100.0 mg/kg/injection, schedule: Q04DX002 (ip), vehicle: saline with Tween-80
[7] = dose: 50.0 mg/kg/injection, schedule: Q01DX009 (ip), vehicle: saline with Tween-80
[8] = dose: 100.0 mg/kg/injection, schedule: Q01DX009 (ip), vehicle: saline with Tween-80
[9] = dose: 200.0 mg/kg/injection, schedule: Q01DX009 (ip), vehicle: saline with Tween-80
[10] = dose: 60.0 mg/kg/injection, schedule: Q01DX005 (ip), vehicle: saline with Tween-80
[11] = dose: 120.0 mg/kg/injection, schedule: Q01DX005 (ip), vehicle: saline with Tween-80
[12] = dose: 240.0 mg/kg/injection, schedule: Q01DX005 (ip), vehicle: saline with Tween-80
[13] = dose: 50.0 mg/kg/injection, schedule: Q01DX005 (ip), vehicle: saline with Tween-80
[14] = dose: 100.0 mg/kg/injection, schedule: Q01DX005 (ip), vehicle: saline with Tween-80
[15] = dose: 200.0 mg/kg/injection, schedule: Q01DX005 (ip), vehicle: saline with Tween-80
[16] = dose: 60.0 mg/kg/injection, schedule: Q01DX005 (ip), vehicle: Klucel (hydroxypropylcellulose) (HPC)
[17] = dose: 120.0 mg/kg/injection, schedule: Q01DX005 (ip), vehicle: Klucel (hydroxypropylcellulose) (HPC)
[18] = dose: 12.5 mg/kg/injection, schedule: Q01DX009 (ip), vehicle: saline
[19] = dose: 25.0 mg/kg/injection, schedule: Q01DX009 (ip), vehicle: saline

COc1ccccc1CC(C)N (stereo unspecified)
T/C (dose: 20.0 mg/kg/injection, schedule: Q04DX003 (ip), vehicle: saline): 110 % of control
T/C (dose: 40.0 mg/kg/injection, schedule: Q04DX003 (ip), vehicle: saline): 105 % of control
T/C (dose: 80.0 mg/kg/injection, schedule: Q04DX003 (ip), vehicle: saline): 105 % of control

C/C=C/C(=O)Nc1ncc([N+](=O)[O-])s1
T/C (dose: 50.0 mg/kg/injection, schedule: Q01DX009 (ip), vehicle: Klucel (hydroxypropylcellulose) (HPC)): 111 % of control
T/C (dose: 100.0 mg/kg/injection, schedule: Q01DX009 (ip), vehicle: Klucel (hydroxypropylcellulose) (HPC)): 114 % of control
T/C (dose: 200.0 mg/kg/injection, schedule: Q01DX009 (ip), vehicle: Klucel (hydroxypropylcellulose) (HPC)): 113 % of control

CN1CCC1=O
T/C [1]: 105 % of control
T/C [2]: 110 % of control
T/C [3]: 97 % of control

COC(=O)CS(=O)(=O)CCCS(=O)(=O)CC(=O)OC
T/C [1]: 105 % of control
T/C [2]: 99 % of control
T/C [3]: 103 % of control

CCCn1c2ccccc2c2c(C)c3cnccc3c(C)c21
T/C (dose: 12.5 mg/kg/injection, schedule: Q04DX002 (ip), vehicle: saline with Tween-80): 100 % of control
T/C [4]: 97 % of control
T/C [5]: 94 % of control
T/C [6]: 105 % of control

COc1ccc(NC(=O)C2C(=O)N(c3ccc(OC)cc3)C(=O)/C2=N/N=C(N)N)cc1 (stereo unspecified)
T/C [4]: 99 % of control
T/C [5]: 101 % of control
T/C [6]: 98 % of control and 101 % of control

COc1ccc2[nH]c3c(c2c1)CCNC3CC(C)CCC=C(C)C (stereo unspecified)
T/C (dose: 12.5 mg/kg/injection, schedule: Q01DX009 (ip), vehicle: saline with Tween-80): 99 % of control
T/C (dose: 25.0 mg/kg/injection, schedule: Q01DX009 (ip), vehicle: saline with Tween-80): 98 % of control

COC(=O)CCSC(=O)Nc1ccc(C)cc1
T/C (dose: 50.0 mg/kg/injection, schedule: Q01DX005 (ip), vehicle: Klucel (hydroxypropylcellulose) (HPC)): 101 % of control
T/C (dose: 100.0 mg/kg/injection, schedule: Q01DX005 (ip), vehicle: Klucel (hydroxypropylcellulose) (HPC)): 100 % of control
T/C (dose: 200.0 mg/kg/injection, schedule: Q01DX005 (ip), vehicle: Klucel (hydroxypropylcellulose) (HPC)): 105 % of control

CCCCCCCCOCC(=O)OC
T/C [7]: 106 % of control
T/C [8]: 107 % of control
T/C [9]: 101 % of control

Cc1cc2c(cc1C)C(=O)c1cc3c(cc1C2=O)OCO3
T/C [10]: 94 % of control
T/C [11]: 91 % of control
T/C [12]: 89 % of control

CCCCOCc1c(-c2ccccc2)sc2ccccc2c1=O
T/C [13]: 97 % of control
T/C [14]: 102 % of control
T/C [15]: 100 % of control

O=C(c1ccccc1)C1Nc2ccccc2CO1 (stereo unspecified)
T/C [16]: 99 % of control
T/C [17]: 107 % of control
T/C (dose: 240.0 mg/kg/injection, schedule: Q01DX005 (ip), vehicle: Klucel (hydroxypropylcellulose) (HPC)): 97 % of control

OC(c1ccccc1)(c1ccccc1)c1ccc(C[P+](c2ccccc2)(c2ccccc2)c2ccccc2)cc1
T/C (dose: 1.56 mg/kg/injection, schedule: Q01DX009 (ip), vehicle: other): 101 % of control
T/C (dose: 3.13 mg/kg/injection, schedule: Q01DX009 (ip), vehicle: other): 117 % of control

Cc1ncc2c(=O)c3c(ccc4ccccc43)oc2n1
T/C (dose: 50.0 mg/kg/injection, schedule: Q04DX003 (ip), vehicle: saline with Tween-80): 96 % of control
T/C (dose: 100.0 mg/kg/injection, schedule: Q04DX003 (ip), vehicle: saline with Tween-80): 96 % of control
T/C (dose: 200.0 mg/kg/injection, schedule: Q04DX003 (ip), vehicle: saline with Tween-80): 97 % of control
T/C (dose: 400.0 mg/kg/injection, schedule: Q04DX003 (ip), vehicle: saline with Tween-80): 103 % of control

O=C1c2cccc([N+](=O)[O-])c2C(=O)c2nccnc21
T/C (dose: 6.0 mg/kg/injection, schedule: Q01DX005 (ip), vehicle: Klucel (hydroxypropylcellulose) (HPC)): 100 % of control
T/C (dose: 12.0 mg/kg/injection, schedule: Q01DX005 (ip), vehicle: Klucel (hydroxypropylcellulose) (HPC)): 107 % of control

Cn1cnc2cc(NCc3ccccc3)c([N+](=O)[O-])cc2c1=O
T/C (dose: 100.0 mg/kg/injection, schedule: Q04DX003 (ip), vehicle: Klucel (hydroxypropylcellulose) (HPC)): 100 % of control
T/C (dose: 200.0 mg/kg/injection, schedule: Q04DX003 (ip), vehicle: Klucel (hydroxypropylcellulose) (HPC)): 106 % of control
T/C (dose: 400.0 mg/kg/injection, schedule: Q04DX003 (ip), vehicle: Klucel (hydroxypropylcellulose) (HPC)): 101 % of control

c1ccc2c(c1)C1OC2c2c1ccc1ccccc21 (stereo unspecified)
T/C [13]: 97 % of control
T/C [14]: 90 % of control
T/C [15]: 88 % of control

ICCCCCCCCCC[n+]1ccc2ccccc2c1
T/C [13]: 107 % of control

O=S(=O)(O)SCCN1CCCC1
T/C [18]: 105 % of control
T/C [19]: 110 % of control
T/C [1]: 110 % of control

CCOC(=O)C1C2(C)NC(=O)C1(Cc1ccccc1)c1cc(C)c(C)cc1O2 (stereo unspecified)
T/C [13]: 99 % of control
T/C [14]: 96 % of control
T/C [15]: 87 % of control

Oc1ccc(O)c([P+](c2ccccc2)(c2ccccc2)c2ccccc2)c1
T/C [7]: 111 % of control
T/C [8]: 115 % of control

CCCN=Cc1ccccc1O.CCCN=Cc1ccccc1O.[Cu]
T/C (dose: 3.75 mg/kg/injection, schedule: Q01DX005 (ip), vehicle: Klucel (hydroxypropylcellulose) (HPC)): 100 % of control
T/C (dose: 7.5 mg/kg/injection, schedule: Q01DX005 (ip), vehicle: Klucel (hydroxypropylcellulose) (HPC)): 104 % of control
T/C (dose: 15.0 mg/kg/injection, schedule: Q01DX005 (ip), vehicle: Klucel (hydroxypropylcellulose) (HPC)): 97 % of control
T/C (dose: 30.0 mg/kg/injection, schedule: Q01DX005 (ip), vehicle: Klucel (hydroxypropylcellulose) (HPC)): 92 % of control and 97 % of control
T/C [16]: 108 % of control and 115 % of control

Cc1cc2c(=O)[nH]c(N)nc2[nH]1
T/C (dose: 12.5 mg/kg/injection, schedule: Q01DX009 (ip), vehicle: suspension in saline): 99 % of control
T/C (dose: 25.0 mg/kg/injection, schedule: Q01DX009 (ip), vehicle: suspension in saline): 115 % of control
T/C (dose: 50.0 mg/kg/injection, schedule: Q01DX009 (ip), vehicle: suspension in saline): 113 % of control and 116 % of control

CCCCCCC1(C(=O)OCCN(CC)CC)CCCCC1
T/C [13]: 101 % of control
T/C [14]: 105 % of control

CC(=O)Oc1ccccc1C(=O)O
T/C (dose: 31.3 mg/kg/injection, schedule: Q01DX009 (ip), vehicle: saline with Tween-80): 90 % of control
T/C [7]: 99 % of control
T/C (dose: 62.5 mg/kg/injection, schedule: Q01DX009 (ip), vehicle: saline with Tween-80): 100 % of control
T/C [8]: 107 % of control
T/C (dose: 125.0 mg/kg/injection, schedule: Q01DX009 (ip), vehicle: saline with Tween-80): 104 % of control
T/C [9]: 95 % of control

C[N+]1(CI)CC2CC(C1)C[N+](C)(CI)C2 (stereo unspecified)
T/C [18]: 105 % of control
T/C [19]: 110 % of control
T/C [1]: 108 % of control

C[CH2][Sn]([CH2]C)([O]c1cccccc1=O)[O]c1cccccc1=O
T/C (dose: 100.0 mg/kg/injection, schedule: Q01DX001 (ip), vehicle: Klucel (hydroxypropylcellulose) (HPC)): 116 % of control
T/C (dose: 200.0 mg/kg/injection, schedule: Q01DX001 (ip), vehicle: Klucel (hydroxypropylcellulose) (HPC)): 110 % of control
T/C (dose: 400.0 mg/kg/injection, schedule: Q01DX001 (ip), vehicle: Klucel (hydroxypropylcellulose) (HPC)): 110 % of control

CC(C)(C)c1cc2c(c(C(C)(C)C)c1)[O][Sb]([c]1ccccc1)([c]1ccccc1)([c]1ccccc1)[NH]2
T/C [7]: 110 % of control
T/C [8]: 115 % of control

NNC(=O)CNc1ccccc1Br
T/C [16]: 97 % of control
T/C [17]: 98 % of control

CC(=O)N[C@H]1CCC2[C@@H]3CCC4=CC(=O)NCC[C@]4(C)C3CC[C@@]21C (stereo partly specified)
T/C [10]: 95 % of control
T/C [11]: 92 % of control
T/C [12]: 94 % of control

COc1cc2c(cc1OC)C1CCN3C(=O)CCC3[N+]1(C)CC2 (stereo unspecified)
T/C (dose: 25.0 mg/kg/injection, schedule: Q01DX009 (ip), vehicle: saline sonified): 90 % of control
T/C (dose: 50.0 mg/kg/injection, schedule: Q01DX009 (ip), vehicle: saline sonified): 90 % of control
T/C (dose: 100.0 mg/kg/injection, schedule: Q01DX009 (ip), vehicle: saline sonified): 90 % of control
